From article PMC9586930, “Molecular insights into the distinct signaling duration for the peptide-induced PTH1R activation” (Nature Communications, 2022) come the findings set out here.

Non-standard residues stand in square brackets, D forms with d. Residues, ends and D or L forms follow the SMILES beside them. No end group written: not given here. Aib = CC(C)(N)C(=O)O

The experiment deals with T1, WT PTH1R (Homo sapiens, UniProt Q03431).
T1 construct: a flag-tag was fused to the N terminal of full-length PTH1R (WT or mutant); expressed in transfected cells; host or cells: HEK293T
T1 sequence (Q03431 27-593): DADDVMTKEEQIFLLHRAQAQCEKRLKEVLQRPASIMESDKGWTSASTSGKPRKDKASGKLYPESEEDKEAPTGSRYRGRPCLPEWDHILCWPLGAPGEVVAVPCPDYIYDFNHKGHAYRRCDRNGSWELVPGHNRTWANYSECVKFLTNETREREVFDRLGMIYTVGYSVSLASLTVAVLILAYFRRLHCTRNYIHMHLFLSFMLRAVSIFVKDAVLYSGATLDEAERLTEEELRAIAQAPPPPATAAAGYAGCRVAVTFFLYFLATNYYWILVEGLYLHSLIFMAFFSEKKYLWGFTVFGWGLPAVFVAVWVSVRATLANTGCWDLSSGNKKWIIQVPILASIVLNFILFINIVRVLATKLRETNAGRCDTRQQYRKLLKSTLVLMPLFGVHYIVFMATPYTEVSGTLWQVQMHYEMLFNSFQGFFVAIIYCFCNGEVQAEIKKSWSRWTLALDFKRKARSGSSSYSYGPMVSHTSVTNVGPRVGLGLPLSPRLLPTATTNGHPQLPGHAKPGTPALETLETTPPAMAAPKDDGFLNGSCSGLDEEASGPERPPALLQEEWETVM
In words: cAMP accumulation assay (GloSensor), wild-type PTH1R. Type of experiment: cell-based. As to conditions: HEK293T cells; for Emax: from curve fitting dose-response data; for EC50: half-maximal stimulatory concentration from curve fitting dose-response data. The protocol: Human embryonic kidney 293 T (HEK293T, ATCC: CRL-1573) cells were transfected with a plasmid mixture consisting of pcDNA3.1-flag-PTH1R (WT or mutants) and the cAMP biosensor GloSensor-22F (Promega) at a ratio of 2:1 (see Supplementary Table 7 for a list of primers used in this study). After 24 h, transfected cells were plated onto a 384-well plate, which was treated with cell adherent reagent (Applygen) in advance. After another 12 h, cells were treated with Hank’s balanced salt solution for starvation and then incubated in CO2-independent media containing 4% GloSensor cAMP Reagent (Promega) at a volume of 5 μl per well and incubated for 20 min at RT before measurements for baseline luminescence (Spark Multimode microplate reader, TECAN). Next, test ligands were added at different concentrations from 10^−6 to 10^−13 M before second measurement. Finally, data were normalized to 100% of the maximal PTH (1-34) response for WT PTH1R using a sigmoidal dose-response in GraphPad Prism.
Statistical analyses were performed on at least three individual datasets and analysed using GraphPad Prism software. Bars represent differences in the calculated agonist potency (pEC50) and maximum agonist response (Emax) for each mutant relative to the WT receptor. Data are mean± s.e.m. from at least three independent experiments, performed in triplicates. ns, not significant, ^nsP > 0.01; ^*P < 0.01; ^**P < 0.001; ^***P < 0.0001 (one-way analysis of variance (ANOVA) followed by Dunnett’s test, compared with the response of the WT). For dose-response experiments, data were normalized and analyzed using nonlinear curve fitting for the log (agonist) versus response (three parameters) curves.
A general note: cAMP levels reflect the balance of adenylyl cyclase and phosphodiesterase activity.

The term EC50 denotes the midpoint of the concentration-response curve. Consider `CC[C@H](C)[C@H](NC(=O)[C@H](CO)NC(=O)[C@H](CCCCN)NC(=O)CNC(=O)[C@H](CCCCN)NC(=O)[C@H](CC(=O)O)NC(=O)[C@H](Cc1c[nH]cn1)NC(=O)[C@H](CC(C)C)NC(=O)[C@H](CC(C)C)NC(=O)[C@H](CCC(N)=O)NC(=O)[C@@H](NC(=O)[C@H](CCC(=O)O)NC(=O)[C@H](CO)NC(=O)[C@@H](NC(=O)[C@H](C)N)C(C)C)[C@@H](C)CC)C(=O)N[C@@H](CCC(N)=O)C(=O)N[C@@H](CC(=O)O)C(=O)N[C@@H](CC(C)C)C(=O)N[C@@H](CCCNC(=N)N)C(=O)N[C@@H](CCCNC(=N)N)C(=O)N[C@@H](CCCNC(=N)N)C(=O)N[C@@H](CCC(=O)O)C(=O)N[C@@H](CC(C)C)C(=O)N[C@@H](CC(C)C)C(=O)N[C@@H](CCC(=O)O)C(=O)N[C@@H](CCCCN)C(=O)N[C@@H](CC(C)C)C(=O)N[C@@H](CC(C)C)C(=O)NC(C)(C)C(=O)N[C@@H](CCCCN)C(=O)N[C@@H](CC(C)C)C(=O)N[C@@H](Cc1c[nH]cn1)C(=O)N[C@H](C(=O)N[C@@H](C)C(N)=O)[C@@H](C)O` [ABL(H5I)] (H-AVSEIQLLHDKGKSIQDLRRRELLEKLL[Aib]KLHTA-NH2), for which the Emax is listed as 104.1 luminescence counts per 500ms and the response was half-maximal at 0.32 nM (EC50).

In turn, `CSCC[C@H](NC(=O)[C@H](CC(C)C)NC(=O)[C@H](CCC(N)=O)NC(=O)[C@H](Cc1c[nH]cn1)NC(=O)[C@H](CCC(=O)O)NC(=O)[C@H](CO)NC(=O)[C@@H](NC(=O)[C@@H](N)CO)C(C)C)C(=O)N[C@@H](Cc1c[nH]cn1)C(=O)N[C@@H](CC(N)=O)C(=O)N[C@@H](CC(C)C)C(=O)NCC(=O)N[C@@H](CCCCN)C(=O)N[C@@H](Cc1c[nH]cn1)C(=O)N[C@@H](CC(C)C)C(=O)N[C@@H](CC(N)=O)C(=O)N[C@@H](CO)C(=O)N[C@@H](CCSC)C(=O)N[C@@H](CCC(=O)O)C(=O)N[C@@H](CCCNC(=N)N)C(=O)N[C@H](C(=O)N[C@@H](CCC(=O)O)C(=O)N[C@@H](Cc1c[nH]c2ccccc12)C(=O)N[C@@H](CC(C)C)C(=O)N[C@@H](CCCNC(=N)N)C(=O)N[C@@H](CCCCN)C(=O)N[C@@H](CCCCN)C(=O)N[C@@H](CC(C)C)C(=O)N[C@@H](CCC(N)=O)C(=O)N[C@@H](CC(=O)O)C(=O)N[C@H](C(=O)N[C@@H](Cc1c[nH]cn1)C(=O)N[C@@H](CC(N)=O)C(=O)N[C@@H](Cc1ccccc1)C(=O)O)C(C)C)C(C)C` [PTH(I5H)] showed an EC50 of 23.6 nM. For “AVAEHQLMHNRAKWIQDARRRAFLHKLIAEIHTAEI [LAPTH(I5H;Q10N)]”, the Emax was 117.7 luminescence counts per 500ms and a half-maximal effect (EC50) was put at 1.4 nM.

As for “AVAEHQLMHQLAKWIQDARRRAFLHKLIAEIHTAEI [LAPTH(I5H;R11L)]”, the Emax is listed as 106.9 luminescence counts per 500ms and the EC50 is 2.08 nM.

“AVAEHQLMHQRAKHIQDARRRAFLHKLIAEIHTAEI [LAPTH(I5H;W14H)]”: the Emax is listed as 117.8 luminescence counts per 500ms and it took 0.493 nM to reach a half-maximal effect (EC50). As to “AVAEHQLMHQRAKWIQDARRRAFLHKLIAEIHTAEI [LAPTH(I5H)]”, the EC50 is 0.183 nM. On to “AVAEHQLMHQRAKWIQDLRRRFFLHHLIAEIHTAEI-NH2 [LAPTH(1-14,I5H)/PTHrP(15-34)]”, for which the Emax is 142.8 luminescence counts per 500ms and the EC50 is 1.76 nM. As to “AVAEHQLMHQRAKWLNSMERVEWLRKKLQDVHNF [LAPTH(1-14,I5H)/PTH(15-34)]”, the Emax is 129.6 luminescence counts per 500ms and the EC50 is 0.643 nM. In the case of “AVAEHQLMHQRGKWIQDARRRAFLHKLIAEIHTAEI [LAPTH(I5H;A12G)]”, the Emax is 129.5 luminescence counts per 500ms and the EC50 is 2.08 nM. With “AVAEIQLLHQRAKWIQDARRRAFLHKLIAEIHTAEI [LAPTH(M8L)]”, the EC50 is 3.45 nM. Turning to “AVAEIQLLMHQRAKSIQDARRRAFLHKLIAEIHTAEI [LAPTH(W14H)]”, the Emax is reported as 107.5 luminescence counts per 500ms. For “AVSEHQLMHQRAKWIQDARRRAFLHKLIAEIHTAEI [LAPTH(I5H;A3S)]”, the Emax was 125.3 luminescence counts per 500ms and the response was half-maximal at 0.39 nM (EC50). Regarding “SVAEHQLMHQRAKWIQDARRRAFLHKLIAEIHTAEI [LAPTH(I5H;A1S)]”, the Emax is 119.8 luminescence counts per 500ms and the EC50 is 1.84 nM. On the same counts, the results for “SVSEHQLMHNLGKHIQDARRRAFLHKLIAEIHTAEI [LA-PTH (I5H-PTH;NT)]” are 102.1 luminescence counts per 500ms and 1.98 nM.
